Molecules are shown by their SMILES. Bridge positions count the residues as written; N and C are the ends. Square brackets hold non-standard residues; d marks the D form. Peptide text beside a SMILES is read from it. * marks the point of attachment. ξ: configuration not given here. Bip = N[C@@H](Cc1ccc(-c2ccccc2)cc1)C(=O)O; Phe(3-Me) = Cc1cccc(C[C@H](N)C(=O)O)c1; hArg = N=C(N)NCCCC[C@H](N)C(=O)O; Cha = N[C@@H](CC1CCCCC1)C(=O)O; Cit = NC(=O)NCCC[C@H](N)C(=O)O; Thr(3ξ) = CC(O)[C@H](N)C(=O)O; 12Ado = NCCCCCCCCCCCC(=O)O; Carboxymethyl = O=C(O)C*; Orn = NCCC[C@H](N)C(=O)O; Aun = NCCCCCCCCCCC(=O)O; Dab = NCC[C@H](N)C(=O)O; Dap = NC[C@H](N)C(=O)O; AEEA = NCCOCCOCC(=O)O

IC50 data for 13 molecules are collected here from patent US20260022142A1, “MACROCYCLIC IMMUNOMODULATORS” (Bristol-Myers Squibb Company, priority 2022, published 2026).

The target in the experiment is T1, PD-1/PD-L1 interaction (PE-labeled human PD-L1-Ig binding to Jurkat cell line over-expressing human PD-1) (Homo sapiens, UniProt Q15116).
T1 construct: expressed in transfected cells; host or cells: Jurkat
T1 sequence (Q15116 25-288): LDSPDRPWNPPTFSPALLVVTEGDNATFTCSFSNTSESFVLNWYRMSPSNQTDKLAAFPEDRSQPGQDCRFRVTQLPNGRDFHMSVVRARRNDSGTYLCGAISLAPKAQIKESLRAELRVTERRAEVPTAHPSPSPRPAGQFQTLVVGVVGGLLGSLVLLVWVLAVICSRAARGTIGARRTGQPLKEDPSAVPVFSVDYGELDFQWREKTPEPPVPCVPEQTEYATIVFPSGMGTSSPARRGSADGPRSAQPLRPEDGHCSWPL
In words: Jurkat-PD-1 Cell Binding High-Content Screening Assay (CBA). The class given is cell-based. The note with it: Jurkat cell line over-expressing human PD-1; PE-labeled PD-L1-Ig 20 nM final; read-out: Jurkat hPD1-PDL1 IC50. The essentials: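 Read-out is high-content imaging of cell-bound phycoerythrin-tagged PD-L1-Ig on fixed, Hoechst-counterstained Jurkat cells that over-express human PD-1. Compound exposure lasts 2 h at 37° C before the labeled ligand (20 nM final) is added for a further hour.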
Regarding `CC(C)C[C@H]1NC(=O)[C@H](CCCN)NC(=O)[C@H](C(C)C)NC(=O)[C@H](Cc2ccc(-c3ccccc3)cc2)NC(=O)[C@H](C(C)C)NC(=O)[C@H](Cc2c[nH]c3ccccc23)NC(=O)[C@H](CC(=O)O)NC(=O)[C@H](Cc2ccc(OCC(=O)O)cc2)NC(=O)[C@H](CCCNC(N)=O)NC(=O)CSC[C@@H](C(=O)N[C@@H](CCCCN)C(=O)NCCCCCCCCCCC(=O)O)NC(=O)[C@H](C(C)O)NC(=O)[C@H](C(C)C)NC(=O)[C@H](CC2CCCCC2)NC(=O)[C@H](Cc2cnc[nH]2)NC1=O` (stereo partly drawn) [Compound 3148] ({CH2CO}-[Cit]Y(Carboxymethyl)DWV[Bip]V[Orn][dL]H[Cha]V[Thr(3ξ)]CK[Aun]-OH; thioether N-14), the IC50 is 56.7 nM.

Regarding `CC(C)C[C@H]1NC(=O)[C@H](CCCN)NC(=O)[C@H](C(C)C)NC(=O)[C@H](Cc2ccc(-c3ccccc3)cc2)NC(=O)[C@H](C(C)C)NC(=O)[C@H](Cc2c[nH]c3ccccc23)NC(=O)[C@H](CC(=O)O)NC(=O)[C@H](Cc2ccc(OCC(=O)O)cc2)NC(=O)[C@H](CN)NC(=O)CSC[C@@H](C(=O)N[C@@H](CCCN)C(=O)NCCCCCCCCCCC(=O)O)NC(=O)[C@H](C(C)O)NC(=O)[C@H](C(C)C)NC(=O)[C@H](CC2CCCCC2)NC(=O)[C@H](CC(N)=O)NC1=O` (stereo partly drawn) [Compound 3149] ({CH2CO}-[Dap]Y(Carboxymethyl)DWV[Bip]V[Orn][dL]N[Cha]V[Thr(3ξ)]C[Orn][Aun]-OH; thioether N-14), the half-inhibitory concentration (IC50) was 46.5 nM.

Take `CC(C)C[C@H]1NC(=O)[C@H](CCCN)NC(=O)[C@H](C(C)C)NC(=O)[C@H](Cc2ccc(-c3ccccc3)cc2)NC(=O)[C@H](C(C)C)NC(=O)[C@H](Cc2c[nH]c3ccccc23)NC(=O)[C@H](CC(=O)O)NC(=O)[C@H](Cc2ccc(OCC(=O)O)cc2)NC(=O)[C@H](CN)NC(=O)CSC[C@@H](C(=O)N[C@@H](CCCCN)C(=O)NCCCCCCCCCCCC(=O)O)NC(=O)[C@H](C(C)O)NC(=O)[C@H](C(C)C)NC(=O)[C@H](CC2CCCCC2)NC(=O)[C@H](CCCNC(=N)N)NC1=O` (stereo partly drawn) [Compound 3150] ({CH2CO}-[Dap]Y(Carboxymethyl)DWV[Bip]V[Orn][dL]R[Cha]V[Thr(3ξ)]CK[12Ado]-OH; thioether N-14): the IC50 amounted to 58.7 nM.

On to `CC(C)C[C@H]1NC(=O)[C@H](CCCN)NC(=O)[C@H](C(C)C)NC(=O)[C@H](Cc2ccc(-c3ccccc3)cc2)NC(=O)[C@H](C(C)C)NC(=O)[C@H](Cc2c[nH]c3ccccc23)NC(=O)[C@H](CC(=O)O)NC(=O)[C@H](Cc2ccc(OCC(=O)O)cc2)NC(=O)[C@H](CCCCNC(=N)N)NC(=O)CSC[C@@H](C(=O)N[C@@H](CCN)C(=O)NCCCCCCCCCCC(=O)O)NC(=O)[C@H](C(C)O)NC(=O)[C@H](C(C)C)NC(=O)[C@H](CC2CCCCC2)NC(=O)[C@H](Cc2cnc[nH]2)NC1=O` (stereo partly drawn) [Compound 3151] ({CH2CO}-[hArg]Y(Carboxymethyl)DWV[Bip]V[Orn][dL]H[Cha]V[Thr(3ξ)]C[Dab][Aun]-OH; thioether N-14), for which the IC50 came to 34.1 nM.

Consider `CC(C)C[C@H]1NC(=O)[C@H](CCCN)NC(=O)[C@H](C(C)C)NC(=O)[C@H](Cc2ccc(-c3ccccc3)cc2)NC(=O)[C@H](C(C)C)NC(=O)[C@H](Cc2c[nH]c3ccccc23)NC(=O)[C@H](CC(=O)O)NC(=O)[C@H](Cc2ccc(OCC(=O)O)cc2)NC(=O)[C@H](CCCCNC(=N)N)NC(=O)CSC[C@@H](C(=O)N[C@@H](CN)C(=O)NCCCCCCCCCCC(=O)O)NC(=O)[C@H](C(C)O)NC(=O)[C@H](C(C)C)NC(=O)[C@H](CC2CCCCC2)NC(=O)[C@H](Cc2cnc[nH]2)NC1=O` (stereo partly drawn) [Compound 3152] ({CH2CO}-[hArg]Y(Carboxymethyl)DWV[Bip]V[Orn][dL]H[Cha]V[Thr(3ξ)]C[Dap][Aun]-OH; thioether N-14), for which the IC50 was determined as 46.7 nM.

Regarding `CC(C)C[C@H]1NC(=O)[C@H](CCCN)NC(=O)[C@H](C(C)C)NC(=O)[C@H](Cc2ccc(-c3ccccc3)cc2)NC(=O)[C@H](C(C)C)NC(=O)[C@H](Cc2c[nH]c3ccccc23)NC(=O)[C@H](CC(=O)O)NC(=O)[C@H](Cc2ccc(OCC(=O)O)cc2)NC(=O)[C@H](CCCCNC(=N)N)NC(=O)CSC[C@@H](C(=O)NCCOCCOCC(=O)N[C@@H](CCCN)C(=O)NCCCCCCCCCCCC(=O)O)NC(=O)[C@H](CO)NC(=O)[C@H](C(C)C)NC(=O)[C@H](CC2CCCCC2)NC(=O)[C@H](CCN)NC1=O` [Compound 3153] ({CH2CO}-[hArg]Y(Carboxymethyl)DWV[Bip]V[Orn][dL][Dab][Cha]VSC[AEEA][Orn][12Ado]-OH; thioether N-14), the IC50 was found to be 12 nM.

Turning to `CC(C)C[C@H]1NC(=O)[C@H](CCCN)NC(=O)[C@H](C(C)C)NC(=O)[C@H](Cc2ccc(-c3ccccc3)cc2)NC(=O)[C@H](C(C)C)NC(=O)[C@H](Cc2c[nH]c3ccccc23)NC(=O)[C@H](CC(=O)O)NC(=O)[C@H](Cc2ccc(OCC(=O)O)cc2)NC(=O)[C@H](CCCCNC(=N)N)NC(=O)CSC[C@@H](C(=O)NCCOCCOCC(=O)N[C@@H](CCCCN)C(=O)NCCCCCCCCCCCC(=O)O)NC(=O)[C@H](CO)NC(=O)[C@H](C(C)C)NC(=O)[C@H](CC2CCCCC2)NC(=O)[C@H](CCN)NC1=O` [Compound 3154] ({CH2CO}-[hArg]Y(Carboxymethyl)DWV[Bip]V[Orn][dL][Dab][Cha]VSC[AEEA]K[12Ado]-OH; thioether N-14), the concentration for half-maximal inhibition (IC50) stood at 14.9 nM.

As for `CC(C)C[C@H]1NC(=O)[C@H](CCCN)NC(=O)[C@H](C(C)C)NC(=O)[C@H](Cc2ccc(-c3ccccc3)cc2)NC(=O)[C@H](C(C)C)NC(=O)[C@H](Cc2c[nH]c3ccccc23)NC(=O)[C@H](CC(=O)O)NC(=O)[C@H](Cc2ccc(OCC(=O)O)cc2)NC(=O)[C@H](CCCCNC(=N)N)NC(=O)CSC[C@@H](C(=O)N[C@@H](CCCCN)C(=O)NCCCCCCCCCCCC(=O)O)NC(=O)[C@H](CO)NC(=O)[C@H](C(C)C)NC(=O)[C@H](CC2CCCCC2)NC(=O)[C@H](Cc2cnc[nH]2)NC1=O` [Compound 3155] ({CH2CO}-[hArg]Y(Carboxymethyl)DWV[Bip]V[Orn][dL]H[Cha]VSCK[12Ado]-OH; thioether N-14), the concentration for half-maximal inhibition (IC50) was 44.6 nM.

Regarding `CC(C)C[C@H]1NC(=O)[C@H](CCCN)NC(=O)[C@H](C(C)C)NC(=O)[C@H](Cc2ccc(-c3ccccc3)cc2)NC(=O)[C@H](C(C)C)NC(=O)[C@H](Cc2c[nH]c3ccccc23)NC(=O)[C@H](CC(=O)O)NC(=O)[C@H](Cc2ccc(OCC(=O)O)cc2)NC(=O)[C@H](CCCCNC(=N)N)NC(=O)CSC[C@@H](C(=O)N[C@@H](CCCN)C(=O)NCCCCCCCCCCCC(=O)O)NC(=O)[C@H](CO)NC(=O)[C@H](C(C)C)NC(=O)[C@H](CC2CCCCC2)NC(=O)[C@H](CC(N)=O)NC1=O` [Compound 3156] ({CH2CO}-[hArg]Y(Carboxymethyl)DWV[Bip]V[Orn][dL]N[Cha]VSC[Orn][12Ado]-OH; thioether N-14), the half-maximal inhibitory concentration (IC50) turned out to be 34.5 nM.

In the case of `CC(C)C[C@H]1NC(=O)[C@H](CCCN)NC(=O)[C@H](C(C)C)NC(=O)[C@H](Cc2ccc(-c3ccccc3)cc2)NC(=O)[C@H](C(C)C)NC(=O)[C@H](Cc2c[nH]c3ccccc23)NC(=O)[C@H](CC(=O)O)NC(=O)[C@H](CCCCNC(=N)N)NC(=O)[C@H](Cc2ccc(OCC(=O)O)cc2)NC(=O)CSC[C@@H](C(=O)NCCOCCOCC(=O)N[C@@H](CCCCN)C(=O)NCCCCCCCCCCCC(=O)O)NC(=O)[C@H](CCN)NC(=O)[C@H](C(C)C)NC(=O)[C@H](CC2CCCCC2)NC(=O)[C@H](Cc2cnc[nH]2)NC1=O` [Compound 3158] ({CH2CO}-Y(Carboxymethyl)[hArg]DWV[Bip]V[Orn][dL]H[Cha]V[Dab]C[AEEA]K[12Ado]-OH; thioether N-14), the IC50 turned out to be 107 nM.

`CC(C)C[C@H]1NC(=O)[C@H](CCCN)NC(=O)[C@H](C(C)C)NC(=O)[C@H](Cc2ccc(-c3ccccc3)cc2)NC(=O)[C@H](C(C)C)NC(=O)[C@H](Cc2c[nH]c3ccccc23)NC(=O)[C@H](CC(=O)O)NC(=O)[C@H](Cc2ccc(OCC(=O)O)cc2)NC(=O)[C@H](CCCCNC(=N)N)NC(=O)CSC[C@@H](C(=O)N[C@@H](CCCN)C(=O)NCCCCCCCCCCC(=O)O)NC(=O)[C@H](C(C)O)NC(=O)[C@H](C(C)C)NC(=O)[C@H](CC2CCCCC2)NC(=O)[C@H](Cc2cnc[nH]2)NC1=O` (stereo partly drawn) [Compound 3159] ({CH2CO}-[hArg]Y(Carboxymethyl)DWV[Bip]V[Orn][dL]H[Cha]V[Thr(3ξ)]C[Orn][Aun]-OH; thioether N-14): the IC50 amounted to 42.6 nM.

For the molecule `Cc1cccc(C[C@@H]2NC(=O)[C@H](CC(=O)O)NC(=O)[C@H](Cc3ccc(OCC(=O)O)cc3)NC(=O)[C@H](CN)NC(=O)CSC[C@@H](C(=O)N[C@@H](CCCCN)C(=O)NCCCCCCCCCCC(=O)O)NC(=O)[C@H](C(C)O)NC(=O)[C@H](C(C)C)NC(=O)[C@H](CC3CCCCC3)NC(=O)[C@H](Cc3cnc[nH]3)NC(=O)[C@@H](CC(C)C)NC(=O)[C@H](CCCN)NC(=O)[C@H](CCC(=O)O)NC(=O)[C@H](Cc3ccc(-c4ccccc4)cc3)NC(=O)[C@H](C(C)C)NC2=O)c1` (stereo partly drawn) [Compound 3160] ({CH2CO}-[Dap]Y(Carboxymethyl)D[Phe(3-Me)]V[Bip]E[Orn][dL]H[Cha]V[Thr(3ξ)]CK[Aun]-OH; thioether N-14), the 50% inhibitory concentration (IC50) was 37.5 nM.

With `Cc1cccc(C[C@@H]2NC(=O)[C@H](CC(=O)O)NC(=O)[C@H](Cc3ccc(OCC(=O)O)cc3)NC(=O)[C@H](CCCCNC(=N)N)NC(=O)CSC[C@@H](C(=O)N[C@@H](CCCCN)C(=O)NCCCCCCCCCCC(=O)O)NC(=O)[C@H](C(C)O)NC(=O)[C@H](C(C)C)NC(=O)[C@H](CC3CCCCC3)NC(=O)[C@H](Cc3cnc[nH]3)NC(=O)[C@@H](CC(C)C)NC(=O)[C@H](CCCN)NC(=O)[C@H](CCC(=O)O)NC(=O)[C@H](Cc3ccc(-c4ccccc4)cc3)NC(=O)[C@H](C(C)C)NC2=O)c1` (stereo partly drawn) [Compound 3161] ({CH2CO}-[hArg]Y(Carboxymethyl)D[Phe(3-Me)]V[Bip]E[Orn][dL]H[Cha]V[Thr(3ξ)]CK[Aun]-OH; thioether N-14), the IC50 turned out to be 38.9 nM.

Broadly, the IC50 is the concentration at which inhibition is half-maximal.
